Like-named read-outs stand apart in the source and are kept apart here.
Experiments:
[1] = logP by HPLC on reversed-phase column (EEC Directive 79/831 Annex V.A8); assay type: physicochemical; details: for chromatographic logP: reversed-phase HPLC column (C18)
Method: Temperature: 40° C.; Mobile phases: 0.1% aqueous formic acid and acetonitrile; linear gradient from 10% acetonitrile to 90% acetonitrile.
Calibration was carried out using unbranched alkan-2-ones (comprising 3 to 16 carbon atoms) with known logP values (determination of the logP values by the retention times using linear interpolation between two successive alkanones).

Myzus persicae = assay: In vivo protective test on Myzus persicae (MYZUPE); details: Chinese cabbage leaf-disks, all instars, spray
Method: In Vivo Protective Test on Myzus persicae (MYZUPE)
Solvent: 78 parts by weight acetone
• 1.5 parts by weight dimethylformamide Dye: 0.5 parts by weight alkylarylpolyglcolether
To produce a suitable preparation of active compound, 1 part by weight of active compound is mixed with the stated amount of solvent and emulsifier, and the concentrate is diluted with emulsifier-containing water to the desired concentration.
Chinese cabbage (Brassica pekinesis) leaf-disks infected with all instars of the green peach aphid (Myzus persicae), are sprayed with a preparation of the active ingredient at the desired concentration.
After the specified period of time, mortality in % is determined. 100% means that all aphids have been killed; 0% means that none of the aphids have been killed.

[2] = HPLC, C18, 40° C., 0.1% aqueous formic acid and acetonitrile

Compound	log P [1, 2]	further results
CCN(C)C=Nc1cc(C)c(OCc2cc(Cl)cc(C(F)(F)F)c2)cc1C [Compound 19]	2.54	activity (mortality) (Myzus persicae): good activity
CCN(C)C=Nc1cc(C)c(OCc2ccc(C)c(C)c2)cc1C [Compound 64]	2.23	activity (mortality) (Myzus persicae): good activity
CCN(C)C=Nc1cc(C)c(OC(C)c2cccc(Cl)c2)cc1C (stereo not drawn) [Compound 30]	2.23	activity (mortality) (Myzus persicae): good activity
CCN(C)C=Nc1cc(C)c(OCc2ccc(C(F)(F)F)cc2Cl)cc1C [Compound 25]	2.47	activity (mortality) (Myzus persicae): good activity
CCN(C)C=Nc1cc(C)c(OCc2cccc(OCC(F)(F)F)c2)cc1C [Compound 49]	2.21	activity (mortality) (Myzus persicae): good activity
CCN(C)C=Nc1cc(C)c(OCc2c(F)cccc2Cl)cc1C [Compound 61]	2.09	activity (mortality) (Myzus persicae): good activity
CCN(C)C=Nc1cc(C)c(OCc2ccc(Oc3ccc(SC)cc3)cc2)cc1C [Compound 72]	2.74	activity (mortality) (Myzus persicae): good activity
CCN(C)C=Nc1cc(C)c(OCc2ccccc2OC(F)(F)F)cc1C [Compound 16]	2.28	activity (mortality) (Myzus persicae): good activity
CCN(C)C=Nc1cc(C)c(OCc2ccc(Oc3ccc(F)cc3)cc2)cc1C [Compound 52]	2.8	activity (mortality) (Myzus persicae): good activity
CCN(C)C=Nc1cc(C)c(OCc2ccc(Oc3ccc(Cl)cc3)cc2)cc1C [Compound 73]	2.8	activity (mortality) (Myzus persicae): good activity
CCN(C)C=Nc1cc(C)c(OCc2cccc(Br)c2)cc1C [Compound 65]	2.18	activity (mortality) (Myzus persicae): good activity
CCN(C)C=Nc1cc(C)c(OCc2ccc(F)cc2)cc1C [Compound 2]	1.99	
CCN(C)C=Nc1cc(C)c(OCc2cc(C(F)(F)F)ccc2Cl)cc1C [Compound 20]	2.44	activity (mortality) (Myzus persicae): good activity
COc1cc(Cl)c(COc2cc(C)c(N=CN3CCCCC3)cc2C)cc1OC [Compound 102]	2.09	
CCN(C)C=Nc1cc(C)c(OCc2cccc(OC(F)(F)F)c2)cc1C [Compound 17]	2.33	
C=Cc1cccc(COc2cc(C)c(N=CN(C)CC)cc2C)c1 [Compound 50]	2.16	
CCN(C)C=Nc1cc(C)c(OCc2cccc(SC(F)(F)F)c2)cc1C [Compound 69]	2.45	activity (mortality) (Myzus persicae): good activity
CCN(C)C=Nc1cc(C)c(OCc2cc(OC)c(OC)cc2Cl)cc1C [Compound 63]	1.99	
Cc1cc(OCc2cccc(C(F)(F)F)c2)c(C)cc1N=CN1CCCCC1 [Compound 96]	2.29	

Compound	log P [1, 2]	further results
Cc1cc(OCc2ccccc2C(F)(F)F)c(C)cc1N=CN1CCCCC1 [Compound 123]	2.29	
CCN(C)C=Nc1cc(C)c(CCc2ccc(C)cc2)cc1C [Compound 41]	2.23	
Cc1cc(OCc2ccc(C(F)(F)F)cc2)c(C)cc1N=CN1CCCCC1 [Compound 126]	2.58	
Cc1cc(OCc2cc(C(F)(F)F)ccc2Cl)c(C)cc1N=CN1CCCCC1 [Compound 119]	2.58	
Cc1cc(OCc2cc(Cl)cc(C(F)(F)F)c2)c(C)cc1N=CN1CCCCC1 [Compound 118]	2.61	
CCN(C)C=Nc1cc(C)c(OC(C)c2ccc(Cl)cc2)cc1C (stereo not drawn) [Compound 31]	2.26	activity (mortality) (Myzus persicae): good activity
CCN(C)C=Nc1cc(C)c(OCc2cccc3nsnc23)cc1C [Compound 51]	1.92	
CCN(C)C=Nc1cc(C)c(CCc2cccc(C(F)(F)F)c2)cc1C [Compound 43]	2.41	
Cc1cc(OCc2ccc(SC(F)(F)F)cc2)c(C)cc1N=CN1CCCCC1 [Compound 115]	2.55	
CCN(C)C=Nc1cc(C)c(OCc2cccc3ccccc23)cc1C [Compound 76]	2.45	
CCN(C)C=Nc1cc(C)c(OCc2ccccc2F)cc1C [Compound 11]	1.94	
CCN(C)C=Nc1cc(C)c(OCc2ccc(C)cc2)cc1C [Compound 32]	2.1	
CCN(C)C=Nc1cc(C)c(OCc2cccc(F)c2)cc1C [Compound 80]	1.99	
CCN(C)C=Nc1cc(C)c(OCc2ccccc2SC(F)(F)F)cc1C [Compound 68]	2.36	activity (mortality) (Myzus persicae): good activity
CCN(C)C=Nc1cc(C)c(OCc2cc(C)ccc2C)cc1C [Compound 56]	2.23	activity (mortality) (Myzus persicae): good activity
Cc1cc(OCc2ccc(Cl)cc2C(F)(F)F)c(C)cc1N=CN1CCCCC1 [Compound 116]	2.55	
CCN(C)C=Nc1cc(C)c(OCc2ccc(Br)cc2)cc1C [Compound 70]	2.21	
CCN(C)C=Nc1cc(C)c(OCc2cccc(OC)c2)cc1C [Compound 81]	1.97	
CCN(C)C=Nc1cc(C)c(OCc2ccccc2Cl)cc1C [Compound 33]	2.08	

Compound	log P [1, 2]	further results
CCN(C)C=Nc1cc(C)c(CCc2ccccc2Cl)cc1C [Compound 37]	2.26	
Cc1cc(OC(C)c2ccc(Cl)cc2)c(C)cc1N=CN1CCCCC1 (racemic) [Compound 132]	2.36	
CCN(C)C=Nc1cc(C)c(CCc2cc(C(F)(F)F)cc(C(F)(F)F)c2)cc1C [Compound 35]	2.79	activity (mortality) (Myzus persicae): good activity
CCN(C)C=Nc1cc(C)c(OCc2ccc(OC(F)F)cc2)cc1C [Compound 24]	2.06	
Cc1cc(OCc2ccc(C#N)cc2)c(C)cc1N=CN1CCCCC1 [Compound 98]	1.94	
Cc1cc(OCc2ccc(Cl)c(Cl)c2)c(C)cc1N=CN1CCCCC1 [Compound 107]	2.45	
Cc1cc(OCc2c(F)cccc2Cl)c(C)cc1N=CN1CCCCC1 [Compound 101]	2.16	
Cc1cc(OCc2cc3c(cc2Cl)OCO3)c(C)cc1N=CN1CCCCC1 [Compound 92]	2.16	
Cc1cc(OCc2ccc(OC(F)(F)F)cc2)c(C)cc1N=CN1CCCCC1 [Compound 122]	2.42	
CCN(C)C=Nc1cc(C)c(OCc2cc(C(F)(F)F)cc(C(F)(F)F)c2)cc1C [Compound 21]	2.62	
CCN(C)C=Nc1cc(C)c(OCc2cccc(C=NOC)c2)cc1C [Compound 12]	2.07	
CCN(C)C=Nc1cc(C)c(OCc2cccc(C)c2Cl)cc1C [Compound 71]	2.29	
Cc1cc(OC(C)c2ccc(F)cc2)c(C)cc1N=CN1CCCCC1 (racemic) [Compound 93]	2.18	
Cc1cc(OCc2ccc(C(F)(F)F)cc2)c(C)cc1N=CN1CCCCC1 [Compound 109]	2.33	
Cc1cc(OC(C)c2ccccc2Cl)c(C)cc1N=CN1CCCCC1 (racemic) [Compound 130]	2.36	
CCN(C)/C=N/c1cc(C)c(CCc2ccccc2F)cc1C [Compound 44, N-ethyl-N′-{4-[2-(2-fluorophenyl)ethyl]-2,5-dimethylphenyl}-N-methylimidoformamide]		chromatographic logP ([1]; pH 2.3, read-out: log P (pH 2.3)): 2.23; chromatographic logP ([1]; HPLC, C18, 40° C., 0.1% aqueous formic acid and acetonitrile, read-out: log P): 2.23
Cc1cc(OCc2ccccc2Cl)c(C)cc1N=CN1CCCCC1 [Compound 106]	2.18	
CCN(C)C=Nc1cc(C)c(OCc2ccc(F)c(F)c2)cc1C [Compound 15]	2.02	
CCN(C)C=Nc1cc(C)c(OCc2ccc(SC(F)(F)F)cc2)cc1C [Compound 83]	2.61	
